Publication PMC12770358, “Molecular defense strategy of volatile organic compound-emitting plants (order Piperales) against herbivorous mammals” (Communications Biology, 2025)

Legend:
Type in all cases: cell-based
TRPA1 [1] = target: T1, TRPA1 (Homo sapiens, UniProt O75762); assay: excised-patch single-channel recording and calcium imaging, […]
T1 construct: Human TRPA1 (NM_007332) expressed in HEK293T cells

TRPA1 [2] = target: T2, TRPA1 (Homo sapiens, UniProt O75762, C641A); assay: whole-cell patch clamp dose-response
T2 construct: hTRPA1 mutant expressed in HEK293 cells
T2 sequence (O75762 whole entry C641A): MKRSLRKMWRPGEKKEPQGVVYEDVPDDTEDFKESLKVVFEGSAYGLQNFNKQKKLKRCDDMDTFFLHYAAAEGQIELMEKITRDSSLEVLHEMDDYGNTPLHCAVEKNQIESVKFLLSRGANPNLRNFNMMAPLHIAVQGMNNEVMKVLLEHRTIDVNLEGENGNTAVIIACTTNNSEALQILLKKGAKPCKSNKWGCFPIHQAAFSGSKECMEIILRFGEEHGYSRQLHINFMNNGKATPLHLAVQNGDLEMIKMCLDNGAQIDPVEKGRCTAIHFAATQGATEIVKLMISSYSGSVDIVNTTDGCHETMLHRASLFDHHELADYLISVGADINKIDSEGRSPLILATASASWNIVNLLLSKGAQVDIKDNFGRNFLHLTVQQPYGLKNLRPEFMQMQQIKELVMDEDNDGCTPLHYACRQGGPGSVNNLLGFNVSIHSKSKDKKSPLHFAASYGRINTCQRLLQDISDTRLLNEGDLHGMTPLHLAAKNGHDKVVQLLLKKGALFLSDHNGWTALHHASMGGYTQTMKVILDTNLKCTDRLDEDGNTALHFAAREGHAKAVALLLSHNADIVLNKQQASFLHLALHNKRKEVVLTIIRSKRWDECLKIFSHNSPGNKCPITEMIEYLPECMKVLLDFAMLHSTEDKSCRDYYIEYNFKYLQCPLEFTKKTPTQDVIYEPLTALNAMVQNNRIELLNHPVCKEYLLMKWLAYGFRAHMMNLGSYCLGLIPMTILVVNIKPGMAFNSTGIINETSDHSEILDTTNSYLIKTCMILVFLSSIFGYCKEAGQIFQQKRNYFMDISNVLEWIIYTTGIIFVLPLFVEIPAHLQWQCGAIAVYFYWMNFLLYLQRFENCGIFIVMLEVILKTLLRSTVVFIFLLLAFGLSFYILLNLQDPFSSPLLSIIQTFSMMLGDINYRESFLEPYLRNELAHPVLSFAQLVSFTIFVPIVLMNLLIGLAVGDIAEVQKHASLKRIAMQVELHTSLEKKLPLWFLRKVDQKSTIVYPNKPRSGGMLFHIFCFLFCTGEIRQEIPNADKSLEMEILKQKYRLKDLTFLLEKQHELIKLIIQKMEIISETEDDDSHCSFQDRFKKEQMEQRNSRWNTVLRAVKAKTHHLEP

TRPA1 [3] = target: T1, TRPA1; assay: whole-cell and excised-patch (inside-out/outside-out) patch clamp, calcium imaging

T1 sequence (O75762 whole entry): as the sequence (O75762 whole entry C641A) above, with A641C counted along it

SMILES | excised-patch single-channel recording and calcium imaging, 1 mM (TRPA1 [1]) | EC50 (TRPA1 [2]) [µM] | EC50 (TRPA1 [3]) [µM]
C=CCN=C=S [AITC, allyl isothiocyanate] | consistently observed in both configurations, mirroring the effects of AITC, a membrane-permeable TRPA1 agonist | – | –
CCCCCCCCCC(=O)CC(O)S(=O)(=O)O (stereo not drawn) [SH, sodium houttuyfonate] | – | 432 ± 9.72 | 343 ± 12.5
